This note sets out measurements from patent US11390621B2, “Chiral indole compounds and their use” (ARIAGEN, INC., priority 2019, dated 2022).

Molecules are shown by their SMILES.

Format in all cases: in vivo
For experiment [1], the system named is A20. As to the kind of experiment: A20 syngeneic mouse tumor model, ARI-164 / anti-PD-1 / combination (Example 49). The method, then: (§1) In this example, the in vivo anti-tumor efficacy of a combination of ARI-164 with an anti-PD-1 antibody was evaluated using a panel of seven subcutaneous syngeneic mouse tumor models.
(§2) Seven subcutaneous syngeneic mouse tumor models were generated by innoculating female BALB/C or C57BL/6 mice with cancer cells at their right lower or right front flank followed by randomization as detailed in Table 10 below.
(§3) A solution of a rat monoclonal anti-mouse PD-1 antibody (isotype IgG2a, κ) at a concentration of 6.61 mg/ml was obtained from BioXcell (InVivoMAb anti-mouse PD-1 (CD279), Clone RMP1-14, Cat #BE0146)) and store at 4° C. The antibody solution was diluted with PBS to obtain a 1 mg/ml dosing solution.
(§4) ARI-164 powder was stored at −20° C. The powder of the compound was dissolved in DMSO to obtain dosing solutions at 26.7 mg/ml for administration to mice at 40 mg/kg, respectively.
(§5) Seven studies using the seven subcutaneous syngeneic mouse tumor models were performed. In each study, 80 mice were enrolled and randomly allocated to eight different study groups, with 10 mice in each study group. The mean tumor size at randomization was approximately 80-120 mm^3 (around 100 mm^3). Randomization was performed based on “Matched distribution” randomization method (StudyDirector™ software, version 3.1.399.19). […]
(§6) The data was collected and analyzed as described above in Example 48.

The test system of experiment [2] is EMT-6. As to the kind of experiment: EMT-6 syngeneic mouse tumor model, ARI-164 / anti-PD-1 / combination (Example 49). The conditions noted are these: EMT-6 model. The protocol:
as §1, §2, §3, §4, §5, §6

Experiment [3] has as its system Pan02. As to the kind of experiment: Pan02 syngeneic mouse tumor model, ARI-164 / anti-PD-1 / combination (Example 49). The protocol:
as §1, §2, §3, §4, §5, §6

In experiment [4] the test system is LL/2. Kind of experiment: LL/2 syngeneic mouse tumor model, ARI-164 / anti-PD-1 / combination (Example 49). The protocol: as §1, §2, §3, §4, §5, §6
Experiment [5] relates to MC38. Kind of experiment: MC38 syngeneic mouse tumor model, ARI-164 / anti-PD-1 / combination (Example 49). The protocol:
as §1, §2, §3, §4, §5, §6

Setting [6] is: intraperitoneal, anti-PD-1 10 mg/kg BIW, ARI-164 40 mg/kg QD.

As to `CC[C@H](O)c1csc(C(=O)c2c[nH]c3cc(F)ccc23)n1` [ARI-164, (S)-(6-Fluoro-1H-indol-3-yl)(4-(1-hydroxypropyl)thiazol-2-yl)methanone], the “tumor inhibition (in words)” value in experiment [1] (combination with anti-PD-1 antibody, study day 28) was “significant tumor inhibition”; in experiment [2] (combination with anti-PD-1 antibody, study day 30), “significant tumor inhibition”; in experiment [3] (combination with anti-PD-1 antibody, study day 55), “increased tumor inhibition”; in experiment [4] (LL/2 model (FIG. 21F), combination with anti-PD-1 antibody, study day 32) it was “tumor inhibition”; in experiment [5] (combination with anti-PD-1 antibody, study day 27), “significant tumor inhibition”. The “TGI (%)” value turned out to be 28.1% in experiment [1] (setting [6]); 57.2% in experiment [2] (setting [6]); 61.1% in experiment [3] (setting [6]); 42.5% in experiment [4] (LL/2 model, intraperitoneal, anti-PD-1 10 mg/kg BIW, ARI-164 40 mg/kg QD); 18.8% in experiment [5] (intraperitoneal, anti-PD-1 10 mg/kg BIW, ARI-164 160 mg/kg QD).
